Values joined by “and” are separate entries in the source; they are usually repeats but may differ in a detail not shown here. Equal values may be shown once. “Also recorded” adds a separate entry of the source.
Tests used:
[1] = system: THP-1; test: Subcutaneous THP-1 leukemia xenograft, efficacy and tolerability; assay type: in vivo, NOD/SCID mice
Method: (§1) The aim of the present experiments was to assess the in vivo efficacy and tolerability of Compound A′ in monotherapy in four leukemia models subcutaneously implanted in NOD/SCID mice.
(§2) The experiments included four in vivo efficacy experiments with female NOD/SCID mice bearing subcutaneous leukemia xenografts. Compound A′ was assessed at one dose level in monotherapy. Anti-tumor activity and tolerability of all groups were assessed using the vehicle control group as a reference.
(§3) Mouse strain, sex: NOD/SCID, female Animals supplied by: Harlan Total number of mice Efficacy test (implanted/randomized): 100/74 Approximate age at implantation: 5-7 weeks Approximate age at randomization: 6-9 weeks
(§4) The tumor models used in this study were derived from commercially available cell lines.
(§5) Leukemia cells were subcutaneously injected as cell suspensions into one flank of immunodeficient NOD/SCID mice under isofluorane anaesthesia (5*10^6 cells per injection). In the case of THP-1 cells, matrigel was used to increase implantation efficacy. For this, 1×10^8 leukemia cells were mixed with matrigel and an appropriate volume of the solution containing 5*10^6 cells was injected as described above.
(§6) At randomization, the volume of growing tumors was initially determined. […] The result of the randomization was documented and maintained with the experimental data. Animals not randomized were euthanized. The day of randomization is designated as day 0 of an experiment.
(§7) Vehicle: 80% (m/V) PEG400 in water for injection Compound A′: preparation of a dosing solution (2.5 mg/ml) once weekly by diluting the Compound A′ powder at 0.25% (w/v) in vehicle; storage of the dosing solution at 4° C.; dosing volume 10 ml/kg
(§8) Mice were weighed twice a week. Relative body weights of individual mice in % were calculated by dividing the individual body weight on day X (BWX) by the individual body weight on day 0 (BW0) multiplied by 100 according to the formula: […]
(§9) Group median relative body weights were calculated as well, considering only the weights of mice that were alive on the day in question.
(§10) The tumor volumes were determined by two-dimensional measurement with a caliper on the day of randomization (day 0) and then twice weekly (i.e. on the same days on which mice were weighed). Tumor volumes were calculated according to the formulas: […]
(§11) Anti-tumor activity was evaluated as maximum tumor volume inhibition versus the vehicle control group. Data evaluation was performed using Oncotest proprietary software.
(§12) Tumor inhibition for a particular day (T/C in %) was calculated from the ratio of the median RTV values of test versus control groups multiplied by 100.
(§13) The minimum (or optimum) T/C % value recorded for a particular test group during an experiment represents the maximum anti-tumor activity for the respective treatment. T/C values were calculated if at least 50% of the randomized animals in a group were alive on the day in question.
(§14) Group optimum T/C values (in %) were used for activity rating as follows:
(§15) All leukemia models were implanted by subcutaneous injection of the corresponding cell line into female NOD/SCID mice. Compound A′ was administered orally at one dose level (25 mg/kg/day) in monotherapy once daily and treatment started once subcutaneous tumors were established. A vehicle-treated control group was included in each experiment. […] Anti-tumor activity (tumor growth inhibition) and tolerability of all groups were assessed using the vehicle control group as a reference.

[2] = system: leukemia xenograft models MV4-11, NOMO-1, THP-1 and HL-60; test: Leukemia xenograft models, statements pooled over several models; assay type: in vivo; details: leukemia xenografts bearing mice, 25 mg/kg/day p.o.
Method: as §1, §2
Mouse strain, sex: NOD/SCID, female Animals supplied by: Harlan Total number of mice Efficacy test (implanted/randomized): 100/74 Approximate age at implantation: 5-7 weeks Approximate age at randomization: 6-9 weeks […]
(§16) At randomization, the volume of growing tumors was initially determined. […]
as §8, §9, §10

[3] = system: NOMO-1; test: Proliferation assay, NOMO-1; assay type: cell-based; details: Homo sapiens; NOMO-1, acute myeloid leukemia, 11q23 positive; after 72 hours of incubation
[4] = system: MOLM-13; test: Proliferation assay, MOLM-13; assay type: cell-based; details: Homo sapiens; MOLM-13, acute myeloid leukemia, 11q23 positive; after 72 hours of incubation
[5] = system: MV4-11; test: Proliferation assay, MV4-11; assay type: cell-based; details: Homo sapiens; MV4-11, acute myeloid leukemia, 11q23 positive; after 72 hours of incubation
[6] = system: OCI-AML-2; test: Proliferation assay, OCI-AML-2; assay type: cell-based; details: Homo sapiens, OCI-AML2; OCI-AML-2, acute myeloid leukemia; after 72 hours of incubation
[7] = system: MV4-11; test: Subcutaneous MV4-11 leukemia xenograft, efficacy and tolerability; assay type: in vivo, NOD/SCID mice
Method: as §1, §2, §3, §4, §5
At randomization, the volume of growing tumors was initially determined. […] The result of the randomization was documented and maintained with the experimental data. Animals not randomized were euthanized. The day of randomization is designated as day 0 of an experiment. […]
as §8, §9, §10
(§17) Anti-tumor activity was evaluated as maximum tumor volume inhibition versus the vehicle control group. […]
as §12
The minimum (or optimum) T/C % value recorded for a particular test group during an experiment represents the maximum anti-tumor activity for the respective treatment. T/C values were calculated if at least 50% of the randomized animals in a group were alive on the day in question. […]

[8] = system: HL-60; test: Proliferation assay, HL-60; assay type: cell-based; details: Homo sapiens; HL-60, acute leukemia; after 72 hours of incubation with the substance
[9] = system: KG-1; test: Proliferation assay, KG-1; assay type: cell-based; details: Homo sapiens; KG-1, acute myeloid leukemia; after 72 hours of incubation
[10] = system: HL-60; test: Subcutaneous HL-60 leukemia xenograft, efficacy and tolerability; assay type: in vivo, NOD/SCID mice; details: 25 mg/kg/day p.o.
Method: as §1, §2, §3, §4
Leukemia cells were subcutaneously injected as cell suspensions into one flank of immunodeficient NOD/SCID mice under isofluorane anaesthesia (5*10^6 cells per injection). In the case of THP-1 cells, matrigel was used to increase implantation efficacy. […]
as §16, §8, §9, §10, §17
Tumor inhibition for a particular day (T/C in %) was calculated from the ratio of the median RTV values of test versus control groups multiplied by 100. […]

[11] = system: PL-21; test: Proliferation assay, PL-21; assay type: cell-based; details: PL-21, acute myeloid leukemia; after 72 hours of incubation
[12] = system: NOMO-1; test: Subcutaneous NOMO-1 leukemia xenograft, efficacy and tolerability; assay type: in vivo, NOD/SCID mice
Method: as §1, §2, §3, §4, §5, §6, §7, §8, §9, §10, §11, §12, §13, §14, §15

For `COc1cc(F)ccc1-c1ncnc(Nc2cccc(CS(C)(=N)=O)c2)n1` (single isomer, unassigned; (+)) [Compound A′, (+)-4-(4-Fluoro-2-methoxyphenyl)-N-{3-[(S-methylsulfonimidoyl)methyl]phenyl}-1,3,5-triazin-2-amine], which “Min. T/C” value ([1]; THP-1 xenograft (11q23 translocation), 25 mg/kg/day p.o., days 0-25, minimum on day 14) is on record?
Its value is 21.0 (14) %.

What about the “anti-tumor activity (in words)” value ([1]; THP-1 xenograft, 25 mg/kg/day p.o.) of the same compound?
The value was “High anti-tumor activity”.

And the “Activity Rating” value ([1]; THP-1 xenograft, 25 mg/kg/day p.o., days 0-25, rating from group optimum T/C)?
The value was “+ (Moderate activity 25% ≦ T/C < 50%)”.

What about the “group median BWL (body weight loss)” value ([1]; THP-1 xenograft-bearing mice, 25 mg/kg/day p.o.) of the same compound?
Its value is “up to 0.4%”.

What about the “Tumor growth versus vehicle control group” value ([1]; THP-1 xenograft, Mann-Whitney-Wilcoxon U-test) of the same compound?
The value was “significantly reduced; also recorded: significantly attenuated”.

What about the tolerability [2] of the same compound?
Its tolerability is “acceptable tolerability profile”.

And the IC50 [3]?
Its IC50 is 328 nM.

And the IC50 [4]?
The IC50 was 320 nM.

What about the IC50 [5] of the same compound?
Its IC50 is 386 nM.

What about the IC50 [6] of the same compound?
Its IC50 is 323 nM.

And the “Min. T/C” value ([7]; MV4-11 xenograft (11q23 translocation), 25 mg/kg/day p.o., days 0-25, minimum on day 14)?
The value was 11.9 (14) %.

And the “anti-tumor activity (in words)” value ([7]; MV4-11 xenograft, 25 mg/kg/day p.o.)?
The value was “High anti-tumor activity”.

And the “Activity Rating” value ([7]; MV4-11 xenograft, 25 mg/kg/day p.o., days 0-25, rating from group optimum T/C)?
The value was “++ (High activity 10% ≦ T/C < 25%)”.

And the “Tumor growth versus vehicle control group” value ([7]; MV4-11 xenograft, Mann-Whitney-Wilcoxon U-test)?
Its value is “significantly reduced; also recorded: significantly attenuated”.

And the IC50 [8]?
Its IC50 is 1120 nM.

What about the IC50 [9] of the same compound?
Its IC50 is 670 nM.

And the “Min. T/C” value ([10]; HL-60 xenograft (no 11q23 translocation), schedule days 0-6, 11-17, minimum on day 14, 25 mg/kg/day)?
The value was 63.9% and 63.9 (14) %.

And the “anti-tumor activity (in words)” value ([10]; HL-60 xenograft)?
The value was “borderline anti-tumor activity”.

And the “Activity Rating” value ([10]; HL-60 xenograft, days 0-6, 11-17, rating from group optimum T/C)?
Its value is “+/− (Borderline activity 50% ≦ T/C < 65%)”.

What about the IC50 [11] of the same compound?
The IC50 was 192 nM.

What about the “Min. T/C” value ([12]; NOMO-1 xenograft (11q23 translocation), 25 mg/kg/day p.o., days 0-25, minimum on day 14) of the same compound?
The value was 19.7 (14) %.

What about the “anti-tumor activity (in words)” value ([12]; NOMO-1 xenograft, 25 mg/kg/day p.o.) of the same compound?
The value was “High anti-tumor activity”.

What about the “Activity Rating” value ([12]; NOMO-1 xenograft, 25 mg/kg/day p.o., days 0-25, rating from group optimum T/C) of the same compound?
Its value is “++ (High activity 10% ≦ T/C < 25%)”.

What about the “group median BWL (body weight loss)” value ([12]; NOMO-1 xenograft-bearing mice, 25 mg/kg/day p.o.) of the same compound?
The value was “up to 0.4%”.

And the “Tumor growth versus vehicle control group” value ([12]; NOMO-1 xenograft, Mann-Whitney-Wilcoxon U-test)?
The value was “significantly reduced; also recorded: significantly attenuated”.
